Source: patent US12202821B2, “Herbicidal compounds” (SYNGENTA CROP PROTECTION AG, priority 2019, dated 2025)

Tests used:
Format in all cases: in vivo
LOLPE [1] = assay: Pre-emergence biological efficacy; settings: 312 h, evaluated after 13 days, read-out: damage to plant (100=total damage to plant; 0=no damage to plant), LOLPE
Protocol: (§1) Pre-Emergence Biological Efficacy
(§2) Seeds of weeds and/or crops were sown in standard soil in pots. After cultivation for one day under controlled conditions in a glasshouse (at 24/16° C., day/night; 14 hours light; 65% humidity), the plants were sprayed with an aqueous spray solution derived from the formulation of the technical active ingredient in acetone/water (50:50) solution containing 0.5% Tween 20 (polyoxyethylene sorbitan monolaurate, CAS RN 9005-64-5) to give the desired final dose of test compound.
(§3) The test plants were then grown under controlled conditions in the glasshouse (at 24/16° C., day/night; 14 hours light; 65% humidity) and watered twice daily. After 13 days the test was evaluated (100=total damage to plant; 0=no damage to plant).

IPOHE [2] = assay: Pre-emergence biological efficacy; settings: Ipomoea hederacea, 312 h, evaluated after 13 days, read-out: damage to plant (100=total damage to plant; 0=no damage to plant), IPOHE
Protocol: as §1, §2, §3

AMAPA [3] = assay: Pre-emergence biological efficacy; settings: 312 h, evaluated after 13 days, read-out: damage to plant (100=total damage to plant; 0=no damage to plant), AMAPA
Protocol: as §1, §2, §3

ECHCG [4] = assay: Pre-emergence biological efficacy; settings: Echinochloa crus-galli, 312 h, evaluated after 13 days, read-out: damage to plant (100=total damage to plant; 0=no damage to plant), ECHCG
Protocol: as §1, §2, §3

EPHHL [5] = assay: Pre-emergence biological efficacy; settings: 312 h, evaluated after 13 days, read-out: damage to plant (100=total damage to plant; 0=no damage to plant), EPHHL
Protocol: as §1, §2, §3

SETFA [6] = assay: Pre-emergence biological efficacy; settings: Setaria faberi, 312 h, evaluated after 13 days, read-out: damage to plant (100=total damage to plant; 0=no damage to plant), SETFA
Protocol: as §1, §2, §3

LOLPE [7] = assay: Post-emergence biological efficacy; settings: 312 h, evaluated after 13 days, read-out: damage to plant (100=total damage to plant; 0=no damage to plant), LOLPE
Protocol: (§4) Post-Emergence Biological Efficacy
as §2, with “8 days” for “one day”
(§5) The test plants were then grown on under controlled conditions in a glasshouse (at 24/16° C., day/night; 14 hours light; 65% humidity) and watered twice daily. After 13 days the test was evaluated (100=total damage to plant; 0=no damage to plant).

ELEIN = assay: Post-emergence biological efficacy; settings: 312 h, evaluated after 13 days, read-out: damage to plant (100=total damage to plant; 0=no damage to plant), ELEIN
Protocol: as §4
as §2, with “8 days” for “one day”
as §5

IPOHE [8] = assay: Post-emergence biological efficacy; settings: Ipomoea hederacea, 312 h, evaluated after 13 days, read-out: damage to plant (100=total damage to plant; 0=no damage to plant), IPOHE
Protocol: as §4
as §2, with “8 days” for “one day”
as §5

AMAPA [9] = assay: Post-emergence biological efficacy; settings: 312 h, evaluated after 13 days, read-out: damage to plant (100=total damage to plant; 0=no damage to plant), AMAPA
Protocol: as §4
as §2, with “8 days” for “one day”
as §5

ECHCG [10] = assay: Post-emergence biological efficacy; settings: Echinochloa crus-galli, 312 h, evaluated after 13 days, read-out: damage to plant (100=total damage to plant; 0=no damage to plant), ECHCG
Protocol: as §4
as §2, with “8 days” for “one day”
as §5

DIGSA = assay: Post-emergence biological efficacy; settings: Digitaria sanguinalis, 312 h, evaluated after 13 days, read-out: damage to plant (100=total damage to plant; 0=no damage to plant), DIGSA
Protocol: as §4
as §2, with “8 days” for “one day”
as §5

CHEAL = assay: Post-emergence biological efficacy; settings: Chenopodium album, 312 h, evaluated after 13 days, read-out: damage to plant (100=total damage to plant; 0=no damage to plant), CHEAL
Protocol: as §4
as §2, with “8 days” for “one day”
as §5

EPHHL [11] = assay: Post-emergence biological efficacy; settings: 312 h, evaluated after 13 days, read-out: damage to plant (100=total damage to plant; 0=no damage to plant), EPHHL
Protocol: as §4
as §2, with “8 days” for “one day”
as §5

SETFA [12] = assay: Post-emergence biological efficacy; settings: Setaria faberi, 312 h, evaluated after 13 days, read-out: damage to plant (100=total damage to plant; 0=no damage to plant), SETFA
Protocol: as §4
as §2, with “8 days” for “one day”
as §5

Cn1c(=S)n(C)c(=O)n(-c2cc(C3=NOC(C)(C(=O)NS(C)(=O)=O)C3)c(Cl)cc2F)c1=O (stereo not drawn) [Compound 284, 3-[2-chloro-5-(3,5-dimethyl-2,6-dioxo-4-thioxo-1,3,5-triazinan-1-yl)-4-fluoro-phenyl]-5-methyl-N-methylsulfonyl-4H-isoxazole-5-carboxamide]
pest or weed control at 250 g/ha (LOLPE [1]): 40% | pest or weed control at 250 g/ha (IPOHE [2]): 100% | pest or weed control at 250 g/ha (AMAPA [3]): 100% | pest or weed control at 250 g/ha (ECHCG [4]): 30% | pest or weed control at 250 g/ha (EPHHL [5]): 100% | pest or weed control at 250 g/ha (SETFA [6]): 70% | pest or weed control at 250 g/ha (LOLPE [7]): 80% | pest or weed control at 250 g/ha (ELEIN): 100% | pest or weed control at 250 g/ha (IPOHE [8]): 100% | pest or weed control at 250 g/ha (AMAPA [9]): 100% | pest or weed control at 250 g/ha (ECHCG [10]): 100% | pest or weed control at 250 g/ha (DIGSA): 100% | pest or weed control at 250 g/ha (CHEAL): 100% | pest or weed control at 250 g/ha (EPHHL [11]): 90% | pest or weed control at 250 g/ha (SETFA [12]): 100%

CC(=O)C1(C)CC(c2cc(-n3c(=O)n(C)c(=S)n(C)c3=O)c(F)cc2Cl)=NO1 (stereo not drawn) [Compound 290, 3-[5-(5-Acetyl-5-methyl-4H-isoxazol-3-yl)-4-chloro-2-fluoro-phenyl]-1,5-dimethyl-6-thioxo-1,3,5-triazinane-2,4-dione]
pest or weed control at 250 g/ha (LOLPE [1]): 90% | pest or weed control at 250 g/ha (IPOHE [2]): 100% | pest or weed control at 250 g/ha (AMAPA [3]): 100% | pest or weed control at 250 g/ha (ECHCG [4]): 90% | pest or weed control at 250 g/ha (EPHHL [5]): 100% | pest or weed control at 250 g/ha (SETFA [6]): 100% | pest or weed control at 250 g/ha (LOLPE [7]): 90% | pest or weed control at 250 g/ha (ELEIN): 100% | pest or weed control at 250 g/ha (IPOHE [8]): 100% | pest or weed control at 250 g/ha (AMAPA [9]): 100% | pest or weed control at 250 g/ha (ECHCG [10]): 90% | pest or weed control at 250 g/ha (DIGSA): 100% | pest or weed control at 250 g/ha (CHEAL): 100% | pest or weed control at 250 g/ha (EPHHL [11]): 100% | pest or weed control at 250 g/ha (SETFA [12]): 90%

CO/N=C(\C)C1(C)CC(c2cc(-n3c(=O)n(C)c(=S)n(C)c3=O)c(F)cc2Cl)=NO1 (stereo not drawn) [Compound 293]
pest or weed control at 250 g/ha (LOLPE [1]): 90% | pest or weed control at 250 g/ha (IPOHE [2]): 50% | pest or weed control at 250 g/ha (AMAPA [3]): 100% | pest or weed control at 250 g/ha (ECHCG [4]): 90% | pest or weed control at 250 g/ha (EPHHL [5]): 100% | pest or weed control at 250 g/ha (SETFA [6]): 100% | pest or weed control at 250 g/ha (LOLPE [7]): 60% | pest or weed control at 250 g/ha (ELEIN): 90% | pest or weed control at 250 g/ha (IPOHE [8]): 100% | pest or weed control at 250 g/ha (AMAPA [9]): 100% | pest or weed control at 250 g/ha (ECHCG [10]): 30% | pest or weed control at 250 g/ha (DIGSA): 100% | pest or weed control at 250 g/ha (CHEAL): 100% | pest or weed control at 250 g/ha (EPHHL [11]): 100% | pest or weed control at 250 g/ha (SETFA [12]): 90%

CC(=NO)C1(C)CC(c2cc(-n3c(=O)n(C)c(=S)n(C)c3=O)c(F)cc2Cl)NO1 (stereo not drawn) [Compound 296, 3-[4-Chloro-2-fluoro-5-[5-[N-hydroxy-C-methyl-carbonimidoyl]-5-methyl-isoxazolidin-3-yl]phenyl]-1,5-dimethyl-6-thioxo-1,3,5-triazinane-2,4-dione]
pest or weed control at 250 g/ha (LOLPE [1]): 80% | pest or weed control at 250 g/ha (IPOHE [2]): 90% | pest or weed control at 250 g/ha (AMAPA [3]): 100% | pest or weed control at 250 g/ha (ECHCG [4]): 80% | pest or weed control at 250 g/ha (EPHHL [5]): 90% | pest or weed control at 250 g/ha (SETFA [6]): 100% | pest or weed control at 250 g/ha (LOLPE [7]): 70% | pest or weed control at 250 g/ha (ELEIN): 90% | pest or weed control at 250 g/ha (IPOHE [8]): 90% | pest or weed control at 250 g/ha (AMAPA [9]): 100% | pest or weed control at 250 g/ha (ECHCG [10]): 30% | pest or weed control at 250 g/ha (DIGSA): 70% | pest or weed control at 250 g/ha (CHEAL): 100% | pest or weed control at 250 g/ha (EPHHL [11]): 80% | pest or weed control at 250 g/ha (SETFA [12]): 80%
